# Assay results: patent US9247732B2, “Agrochemical formulations containing a compatibility agent” (priority 2011, dated 2016)
# Assay: Tank-mix compatibility test of dodine 400 SC with another pesticide or adjuvant
# Assay type: physicochemical
# Conditions: dodine 400 SC 1.25 l/200 l water plus other pesticide or adjuvant, observed after mixing for 30 minutes
# Protocol: Test protocols for evaluating the compatibility of pesticide active ingredients and adjuvants are readily available and known to a person skilled in the art. A method suitable for use in the present invention is as follows: fill a 250 ml beaker with 200 ml of well water (temperature 15-17° C., water hardness 8° dH corresponding to 80 mg calcium oxide/l). […] Add a magnetic stirrer to the beaker. Stir the suspension for approximately 5 minutes at a speed of rotation of 700 rotations per minute. Add a mixing partner, such as an adjuvant or second plant protection product to the suspension. Stir the suspension for an additional 15 minutes. Stop stirring when a total stirring time of 20 minutes is obtained. Let the suspension stand unstirred for a few minutes. Then check for any separation, sediment, crystallization or flocculation. Note down the results of the visual observation. Stir the suspension for a further 20 minutes. Stop the stirring. After 2 hours have lapsed assess the compatibility for a second time. Upon finishing the second observation, pour the whole suspension over a 100 μm sieve. Note down if residue is present on the sieve.
# Tank-mixes comprising dodine without acetate were prepared. […] Mixing was stopped.
# As a comparison, the same tank-mixes were prospered, this time comprising dodine with acetate (A′-E′). […] Mixing was stopped after 30 minutes.
# [1] = with sodium acetate 0.36 kg/200 l
Compound,Compatibility test [1],Compatibility test (without compatibility agent)
"COc1cccc(C(=O)NN(C(=O)c2cc(C)cc(C)c2)C(C)(C)C)c1C [methoxyfenozide, benzoic acid, 3-methoxy-2-methyl-, 2-(3,5-dimethylbenzoyl)-2-(1,1-dimethylethyl)hydrazide]",improved the compatibility,not possible due to incompatibility problems
"Cc1cc(C)nc(Nc2ccccc2)n1 [pyrimethanil, N-(4,6-dimethylpyrimidin-2-yl)aniline]",improved the compatibility,not possible due to incompatibility problems
CCC(C)(C)C(=O)OC1=C(c2ccc(Cl)cc2Cl)C(=O)OC12CCCCC2 [spirodiclofen],improved the compatibility,not possible due to incompatibility problems
